Data on 21 compounds can be found in ChEMBL document CHEMBL2331397, “Indoleamine 2,3-dioxygenase inhibitory activity of derivatives of marine alkaloid tsitsikammamine A” (Bioorg Med Chem Lett, 2013).

Active and inactive are the calls of the source. The rule behind the calls is not given here. A value given as a limit tells only on which side of the number the result lay.

Data set [1] can be described thus: Cytotoxicity against mouse P815B cells assessed as cell viability at 10 uM by MTT assay relative to control. Format: cell-based. The conditions noted are these: read-out: Activity.
The target in data set [2] is Tryptophan 2,3-dioxygenase (Mus musculus) (UniProt P48776). Kind of data set: Inhibition of mouse TDO overexpressed in mouse P815B cells using L-Trp as substrate assessed as kynurenine level at 10 uM by HPLC analysis relative to control. Format: cell-based.
The target in data set [3] is Indoleamine 2,3-dioxygenase 1 (Mus musculus) (UniProt P28776). Kind of data set: Inhibition of mouse IDO1 overexpressed in mouse P815B cells using L-Trp as substrate assessed as kynurenine level at 10 uM by HPLC analysis relative to control. Type of data set: cell-based.
The target of data set [4] is T1, Indoleamine 2,3-dioxygenase 1 (Homo sapiens, UniProt P14902). Nature of the data set: Inhibition of human recombinant IDO1 using L-Trp as substrate assessed as kynurenine level after 30 mins.
Data set [5] deals with T1, Indoleamine 2,3-dioxygenase 1. Kind of data set: Uncompetitive inhibition of hexahistidyl-tagged human IDO1.
Target sequence in this assay (P14902 whole entry): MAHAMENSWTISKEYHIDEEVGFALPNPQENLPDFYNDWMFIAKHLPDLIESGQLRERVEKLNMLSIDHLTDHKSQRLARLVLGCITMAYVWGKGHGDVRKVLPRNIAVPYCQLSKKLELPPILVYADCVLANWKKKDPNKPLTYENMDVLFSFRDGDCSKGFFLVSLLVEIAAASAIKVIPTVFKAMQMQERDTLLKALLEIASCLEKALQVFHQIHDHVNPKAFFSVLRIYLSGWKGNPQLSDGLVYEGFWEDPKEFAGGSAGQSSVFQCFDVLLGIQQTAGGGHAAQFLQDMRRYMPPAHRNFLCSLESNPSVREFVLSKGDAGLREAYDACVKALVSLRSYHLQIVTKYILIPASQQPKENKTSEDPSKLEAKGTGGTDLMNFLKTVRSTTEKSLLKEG
The target in data set [6] is Tryptophan 2,3-dioxygenase (Mus musculus) (UniProt P48776). The conditions noted are these: P815B, 22 uM.
Description: Inhibition of mouse TDO overexpressed in mouse P815B cells using L-Trp as substrate assessed as kynurenine level at 22 uM by HPLC analysis relative to control
Data set [7] has as its target Indoleamine 2,3-dioxygenase 1 (Mus musculus) (UniProt P28776). Nature of the data set: Inhibition of mouse IDO1 overexpressed in mouse P815B cells using L-Trp as substrate assessed as kynurenine level at 22 uM by HPLC analysis relative to control. Format: cell-based.

Sequence of Indoleamine 2,3-dioxygenase 1 (Mus musculus) (P28776 whole entry, looked up): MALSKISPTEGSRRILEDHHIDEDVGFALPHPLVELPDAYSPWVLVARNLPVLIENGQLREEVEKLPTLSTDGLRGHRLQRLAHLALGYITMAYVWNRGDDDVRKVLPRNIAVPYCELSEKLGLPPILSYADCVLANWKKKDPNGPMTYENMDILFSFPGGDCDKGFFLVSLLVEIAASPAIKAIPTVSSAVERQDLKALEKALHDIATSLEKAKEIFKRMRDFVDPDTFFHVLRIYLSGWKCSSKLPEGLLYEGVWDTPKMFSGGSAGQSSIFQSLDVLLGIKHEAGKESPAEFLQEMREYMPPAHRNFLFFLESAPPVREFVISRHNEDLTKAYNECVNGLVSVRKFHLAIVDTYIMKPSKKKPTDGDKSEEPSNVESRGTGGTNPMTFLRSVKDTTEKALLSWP
Sequence of Tryptophan 2,3-dioxygenase (Mus musculus) (P48776 whole entry): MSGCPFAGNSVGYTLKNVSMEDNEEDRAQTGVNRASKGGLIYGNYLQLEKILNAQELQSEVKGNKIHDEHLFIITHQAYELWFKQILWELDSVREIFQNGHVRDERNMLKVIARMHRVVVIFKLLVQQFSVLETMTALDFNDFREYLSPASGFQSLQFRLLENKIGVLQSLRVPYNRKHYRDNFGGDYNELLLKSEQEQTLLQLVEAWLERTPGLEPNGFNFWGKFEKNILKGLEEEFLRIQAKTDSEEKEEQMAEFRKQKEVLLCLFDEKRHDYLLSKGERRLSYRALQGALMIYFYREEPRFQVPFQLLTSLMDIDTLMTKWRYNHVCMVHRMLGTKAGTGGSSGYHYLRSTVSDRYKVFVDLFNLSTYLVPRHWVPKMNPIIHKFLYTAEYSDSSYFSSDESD

By inhibition is commonly meant the drop in the measured response relative to a control, in per cent. One may read the IC50 as the concentration needed to halve the response being measured. Regarding `COc1ccc(C2CNC3=C2C(=O)c2c(ccn2S(=O)(=O)c2ccc(C)cc2)C3=O)cc1` (configuration not stated), the viability at 10 µM in data set [1] was more than 90%. The results for the inhibition in data set [2] and in data set [3] were 3.2% and 54.2%, respectively. Besides, the IC50 in data set [4] was determined as 5.6 µM.
For `COc1ccc(-c2c[nH]c3c2C(=O)c2c(CCN)cn(S(=O)(=O)c4ccc(C)cc4)c2C3=O)cc1` the same measures were 80%, “inactive”, 15.6% and 5.4 µM.
Regarding `COc1ccc(C(O)CNC2=CC(=O)c3c(CCNC(=O)OC(C)(C)C)cn(S(=O)(=O)c4ccc(C)cc4)c3C2=O)cc1` (configuration not stated), the viability at 10 µM in data set [1] is more than 90%. The inhibition entry in data set [2] was “inactive”. For the same compound, the inhibition in data set [3] amounted to 31.3%. Also, the IC50 in data set [4] is 26.9 µM.
Consider `COc1ccc(C2CNC3=C2C(=O)c2ccn(S(=O)(=O)c4ccc(C)cc4)c2C3=O)cc1` (configuration not stated), for which the viability at 10 µM in data set [1] is more than 90%. For the same compound, the inhibition in data set [2] was 2.5%; in data set [3], 40.2%. The IC50 in data set [4] stood at 1.8 µM.
In general, Ki refers to a dissociation constant, usually derived from enzyme kinetics or from competition with a known ligand. Turning to `CO[C@@]12[C@H](COC(N)=O)C3=C(C(=O)C(C)=C(N)C3=O)N1C[C@@H]1N[C@@H]12` [MITOMYCIN], the Ki in data set [5] amounted to 25 µM.
In the case of `COc1ccc(C(O)CNC2=CC(=O)c3c(c(CCNC(=O)OC(C)(C)C)cn3S(=O)(=O)c3ccc(C)cc3)C2=O)cc1` (configuration not stated), in data set [1], the viability at 10 µM was more than 90%. In addition, the inhibition result in data set [2] is “inactive”. The inhibition in data set [3] came out at 17.4%. Besides, the IC50 in data set [4] stood at 10.1 µM.
With `Cn1cc(C[C@H](N)C(=O)O)c2ccccc21` [(L)-1-METHYLTRYPTOPHAN], in data set [6], the inhibition entry was “inactive”. Moreover, the inhibition in data set [7] stood at 14.5%. Besides, the viability at 10 µM in data set [1] is more than 90%.
`COc1ccc(-c2c[nH]c3c2C2=NCCc4cn(S(=O)(=O)c5ccc(C)cc5)c(c42)C3=O)cc1`: in data set [1], the viability at 10 µM was more than 90%. Further, the inhibition in data set [2] is 3.1%; in data set [3] it was 32%. The IC50 in data set [4] stood at 2.2 µM.
Regarding `COc1ccc(-c2c[nH]c3c2C(=O)c2ccn(S(=O)(=O)c4ccc(C)cc4)c2C3=O)cc1`, the viability at 10 µM in data set [1] is more than 90%. Further, the inhibition entry in data set [2] is “inactive”. For the same compound, the inhibition in data set [3] is 19.6%; in data set [4] it was less than 50%.
Turning to `COc1ccc(-c2c[nH]c3c2C(=O)c2cc[nH]c2C3=O)cc1`, the viability at 10 µM in data set [1] was less than 50%. In addition, the IC50 in data set [4] was determined as 12.6 µM.
`COc1ccc(C2CNC3=C2C(=O)c2c(c(CCN)cn2S(=O)(=O)c2ccc(C)cc2)C3=O)cc1` (configuration not stated): the viability at 10 µM in data set [1] was more than 90%. The values for the inhibition in data set [2] and in data set [3] were 4.7% and 40.2%, respectively. Further, the IC50 in data set [4] was 5.6 µM.
For `O=C1c2[nH]cc3c2C(=NCC3)c2[nH]cc(-c3ccc(O)cc3)c21` the same measures were more than 90%, “inactive”, 5.3% and 7 µM.
Consider `COc1ccc(-c2c[nH]c3c2C2=NCCc4c[nH]c(c42)C3=O)cc1`, for which the viability at 10 µM in data set [1] was more than 90%. For the same compound, the inhibition result in data set [2] was “inactive”. Moreover, in data set [3], the inhibition is 19.4%. Further, the IC50 in data set [4] amounted to 0.9 µM.
`COc1ccc(-c2c[nH]c3c2C(=O)c2[nH]ccc2C3=O)cc1`: in data set [1], the viability at 10 µM was less than 50%. Also, the IC50 in data set [4] came to 22.4 µM.
As to `COc1ccc(C2CNC3=C2C(=O)c2c(CCN)cn(S(=O)(=O)c4ccc(C)cc4)c2C3=O)cc1` (configuration not stated), the viability at 10 µM in data set [1] stood at 83%. Besides, the inhibition entry in data set [2] was “inactive”. Moreover, the inhibition in data set [3] was found to be 26.1%. In data set [4], the IC50 worked out at 2.8 µM.
Regarding `O=C1c2[nH]ccc2C(=O)c2c(-c3ccc(O)cc3)c[nH]c21`, the viability at 10 µM in data set [1] is more than 90%. Moreover, the inhibition result in data set [2] and in data set [3] was “inactive” in each case. Moreover, the inhibition in data set [4] is less than 50%.
As for `COc1ccc(-c2c[nH]c3c2C(=O)c2[nH]cc4c2C3=NCC4)cc1`, the viability at 10 µM in data set [1] is less than 50%. In data set [4], the IC50 was 7.1 µM.
As for `COc1ccc(-c2c[nH]c3c2C(=O)c2c(c(CCN)cn2S(=O)(=O)c2ccc(C)cc2)C3=O)cc1`, the viability at 10 µM in data set [1] was more than 90%. In data set [2], the inhibition entry was “inactive”. Moreover, the inhibition in data set [3] was 26%. Moreover, in data set [4], the IC50 was determined as 11.9 µM.
Turning to `COc1ccc(-c2c[nH]c3c2C(=O)c2c4c(cn2S(=O)(=O)c2ccc(C)cc2)CCN=C34)cc1`, the viability at 10 µM in data set [1] is less than 50%. The IC50 in data set [4] came out at 4.2 µM.
With `COc1ccc(C(O)CNC2=CC(=O)c3ccn(S(=O)(=O)c4ccc(C)cc4)c3C2=O)cc1` (configuration not stated), the viability at 10 µM in data set [1] was more than 90%. The inhibition entry in data set [2] is “inactive”. Moreover, the inhibition in data set [3] stood at 24.3%. Moreover, in data set [4], the IC50 was found to be 2.5 µM.
The like results for `COc1ccc(C(O)CNC2=CC(=O)c3c(ccn3S(=O)(=O)c3ccc(C)cc3)C2=O)cc1` (configuration not stated) were, in that order, more than 90%, 1.1%, 37.3% and 8.8 µM.
